From article PMC6493465 (Oncotarget, 2019)
Counter-ions that a name gives are not always drawn. Like-named read-outs stand apart in the source and are kept apart here.

Assays:
MOLM-13 cells = assay: Annexin-V staining (apoptosis), MOLM-13; assay type: cell-based, human; conditions: single agent: IDR 3 nM, AraC 100 nM or Aza 1000 nM, 48 hours
Protocol: MV4-11 cells were seeded in 12-well plates at a concentration of 2 × 10^5 cells/well and cultured overnight. […] MOLM-13 cells were seeded in 12-well plates at a concentration of 1 × 10^5 cells/well and cultured overnight.
Cells were harvested and incubated with Guava® Nexin Reagent (Merck Millipore Corporation, Billerica, MA). Annexin-V-positive cells were assessed using a Guava® PCA microcytometer (Merck Millipore Corporation); the percentage of annexin-V-positive cells (2000 cells per sample) was analyzed using CytoSoft™ software (Merck Millipore Corporation). Mean percentages of annexin-V-positive cells were derived from three independent experiments.

[1] = system: MCL-1, BCL2L10, survivin and cPARP in MOLM-13 cells; assay: Western blot analysis of anti-apoptotic protein expression, MOLM-13; assay type: cell-based, human; conditions: MOLM-13, 24-hour treatment; gilteritinib 30 nM, AraC 100 nM, IDR 3 nM, Aza 1000 nM
Protocol: Cell lysates were prepared in radioimmunoprecipitation assay buffer (Thermo Fisher Scientific Inc., Rockford, IL) supplemented with phosphatase (Thermo Fisher Scientific Inc.) and protease inhibitors (Merck, Billerica, MA), electrophoresed on 4%–15% gels, and subsequently transferred to polyvinylidene difluoride membranes. The membranes were blocked using Blocking One (Nacalai Tesque Inc., Kyoto, Japan) for 1 hour and then incubated overnight with primary antibodies to MCL-1, BCL210, cPARP (all from Cell Signaling Technology, Danvers, MA, USA), survivin (R&D Systems, Inc., Minneapolis, MN), and α-actin (MilliporeSigma, Burlington, MA). The membranes were washed with TBS Tween-20 (TBS-T) buffer and incubated with appropriate horseradish peroxidase-linked secondary antibodies (Cell Signaling Technology Japan K.K.) for 1 hour at room temperature. After washing the membranes in TBS-T buffer, enhanced chemiluminescence Western Blotting Detection Reagent ECL-prime (GE Healthcare, Fairfield, CT) was applied. Signals were detected with a charge-coupled device camera (ImageQuant LAS4000; GE Healthcare); signal intensity was quantified using ImageQuant™ TL software (GE Healthcare).

[2] = Pharmacokinetic assays (plasma and tumor) in nude mice xenografted with MV4-11 cells; assay type: in vivo, mouse; conditions: for Cmax / Tmax / AUC / half-life / clearance / Vd: nude, mouse; for AUC: read-out: AUC24; for concentration in tumor fraction versus plasma fraction: xenografted mice; for clearance: read-out: CLtot (converted); for Vd: read-out: Vss
Protocol: Plasma samples were prepared by centrifugation (n=3 per group; one sample in the combination group was excluded due to improper handling). […] These assays were conducted by Astellas Research Technologies Co., Ltd. under the guidance of Analysis & Pharmacokinetics Research Laboratories, Astellas Pharma, Inc., or by Nemoto Science Co., Ltd. (Ibaraki, Japan). […] Body weight and tumor assessments obtained on with MV4-11 cells received one of the following Day −1 were designated as Day 0 (baseline) measurements. combination treatments: 1. […] The percent tumor regression was calculated using the formula: […]

[3] = plasma, ip, 50 mg/kg, AraC in plasma, gilteritinib 3, AraC 50, IDR 0.5 mg/kg
[4] = plasma, ip, AraC in plasma, gilteritinib 0, AraC 50, IDR 0.5 mg/kg
[5] = tumor, ip, 50 mg/kg, AraC in tumor, gilteritinib 3, AraC 50, IDR 0.5 mg/kg
[6] = tumor, ip, AraC in tumor, gilteritinib 0, AraC 50, IDR 0.5 mg/kg
[7] = idarubicin in tumor, with versus without gilteritinib
[8] = tumor, iv, 0.5 mg/kg, idarubicin in tumor, gilteritinib 0, AraC 50, IDR 0.5 mg/kg
[9] = tumor, iv, idarubicin in tumor, gilteritinib 3, AraC 50, IDR 0.5 mg/kg

**Q.** For `Nc1ccn([C@@H]2O[C@H](CO)[C@@H](O)[C@@H]2O)c(=O)n1` [AraC, Cytarabine], which “mean percentage of annexin V-positive cells” value (MOLM-13 cells) is on record?
**A.** 21.9%

**Q.** What about the “expression of MCL-1, BCL2L10, and survivin” value [1] of the same compound?
**A.** little effect

**Q.** What about the AUC24 ratio ([2]; AraC in plasma, with versus without gilteritinib) of the same compound?
**A.** 0.32

**Q.** And the AUC24 ([2]; AraC in tumor, gilteritinib 0, AraC 50, IDR 0.5 mg/kg)?
**A.** 7968 ng·h/g

**Q.** And the AUC24 ratio ([2]; AraC in tumor, with versus without gilteritinib)?
**A.** 1.13

**Q.** And the Cmax [2, 3]?
**A.** 18 µg/mL

**Q.** What about the Tmax [2, 3] of the same compound?
**A.** 0.083 h

**Q.** And the AUC [2, 3]?
**A.** 9.96 µg·h/mL

**Q.** What about the Cmax [2, 4] of the same compound?
**A.** 28.7 µg/mL

**Q.** And the Tmax [2, 4]?
**A.** 0.25 h

**Q.** What about the AUC [2, 4] of the same compound?
**A.** 31.6 µg·h/mL

**Q.** What about the Cmax [2, 5] of the same compound?
**A.** 1060 ng/g

**Q.** And the Tmax [2, 5]?
**A.** 2 h

**Q.** And the Cmax [2, 6]?
**A.** 904 ng/g

**Q.** And the Tmax [2, 6]?
**A.** 2 h

**Q.** What about the “concentration in tumor fraction versus plasma fraction” value [2] of the same compound?
**A.** higher in the plasma fraction

**Q.** For `CC(=O)[C@]1(O)Cc2c(O)c3c(c(O)c2[C@@H](O[C@H]2C[C@H](N)[C@H](O)[C@H](C)O2)C1)C(=O)c1ccccc1C3=O` [IDR, Idarubicin hydrochloride], which “mean percentage of annexin V-positive cells” value (MOLM-13 cells) is on record?
**A.** 36.6%

**Q.** What about the “expression of MCL-1, BCL2L10, and survivin” value [1] of the same compound?
**A.** little effect

**Q.** And the “AUC24 ratio” value ([2]; idarubicin in plasma, with versus without gilteritinib)?
**A.** 1.23

**Q.** What about the AUC24 ([2]; idarubicin in tumor, gilteritinib 0, AraC 50, IDR 0.5 mg/kg) of the same compound?
**A.** 4491 ng·h/g

**Q.** What about the AUC24 ([2]; idarubicin in tumor, gilteritinib 3, AraC 50, IDR 0.5 mg/kg) of the same compound?
**A.** 4855 ng·h/g

**Q.** What about the “AUC24 ratio” value [2, 7] of the same compound?
**A.** 1.08

**Q.** And the Cmax ratio [2, 7]?
**A.** 1.11

**Q.** And the half-life ([2]; plasma, iv)?
**A.** 2.24 h

**Q.** What about the half-life ([2]; plasma, iv, 0.5 mg/kg) of the same compound?
**A.** 1.49 h

**Q.** What about the AUC ([2]; plasma, iv, 0.5 mg/kg, idarubicin in plasma, gilteritinib 0, AraC 50, IDR 0.5 mg/kg) of the same compound?
**A.** 0.0633 µg·h/mL

**Q.** What about the clearance ([2]; plasma, iv, 0.5 mg/kg) of the same compound?
**A.** 13 L/h/kg

**Q.** What about the Vd ([2]; plasma, iv, 0.5 mg/kg) of the same compound?
**A.** 26.7 L/kg

**Q.** And the AUC ([2]; plasma, iv, idarubicin in plasma, gilteritinib 3, AraC 50, IDR 0.5 mg/kg)?
**A.** 0.0779 µg·h/mL

**Q.** And the clearance ([2]; plasma, iv)?
**A.** 10.3 L/h/kg

**Q.** What about the Vd ([2]; plasma, iv) of the same compound?
**A.** 31.5 L/kg

**Q.** And the Cmax [2, 8]?
**A.** 204 ng/g

**Q.** And the Tmax [2, 8]?
**A.** 4 h

**Q.** And the Cmax [2, 9]?
**A.** 226 ng/g

**Q.** What about the Tmax [2, 9] of the same compound?
**A.** 24 h

**Q.** What about the “concentration in tumor fraction versus plasma fraction” value [2] of the same compound?
**A.** higher in the tumor fraction
